Laboratory results: ChEMBL document CHEMBL5528046, “Discovery of Novel PROTAC Degraders of p300/CBP as Potential Therapeutics for Hepatocellular Carcinoma” (J Med Chem, 2024)
Calls of active or inactive are those of the source. No cut-off for these calls is given here.

What was measured:
[1] = target: CREB-binding protein/Histone acetyltransferase p300 (Homo sapiens, UniProt Q09472+Q92793); test: Inhibition of p300/CBP (unknown origin) using histone H3 (1 to 21 residues) as substrate incubated for 90 mins by AlphaLISA assay; format: protein assay
SK-HEP1 [2] = test: Antiproliferative activity against human SK-HEP1 cells assessed as inhibition of cell growth incubated for 5 days by CCK-8 assay; format: functional, cell-based; conditions: SK-HEP1, 120 h
[3] = Antiproliferative activity against human JHH7 cells assessed as inhibition of cell growth incubated for 5 days by CCK-8 assay; format: functional, cell-based; conditions: JHH7, 120 h
SK-HEP1 [4] = test: Induction of cell cycle arrest at G2/M phase in human SK-HEP1 cells assessed as SKP2 protein level at 2 uM incubated for 24 hrs by immunoblotting analysis (reference value: 100%); format: functional
SK-HEP1 [5] = test: Induction of cell cycle arrest at G2/M phase in human SK-HEP1 cells assessed as reduction in CDK6 protein level at 2 uM incubated for 24 hrs by immunoblotting analysis (reference value: 100%); format: functional; design: scale not given: the % may be the effect or the level left
Mus musculus = test: In vivo PROTAC activity at CRBN/p300 in nude mouse xenografted with human SK-HEP1 cells assessed as reduction in p300 protein level in tumor at 50 mg/kg, ip measured after 24 hrs by immunoblotting analysis; format: functional, organism-based
[6] = target: Protein cereblon/CREB-binding protein (Homo sapiens) (UniProt Q92793+Q96SW2); test: In vivo PROTAC activity at CRBN/CBP in nude mouse xenografted with human SK-HEP1 cells assessed as reduction in CBP protein level in tumor at 50 mg/kg, ip measured after 24 hrs by immunoblotting analysis; format: functional, organism-based
[7] = target: T1, Protein cereblon/Histone acetyltransferase p300 (Homo sapiens, UniProt Q09472+Q96SW2); test: PROTAC activity at CRBN/p300 in human SK-HEP1 cells assessed as increase in protein ubiquitination at 2 uM incubated for 24 hrs by immunoblotting analysis (reference value: 100%); format: cell-based
[8] = target: T1, Protein cereblon/Histone acetyltransferase p300; test: PROTAC activity at CRBN/p300 in human SK-HEP1 cells assessed as increase in protein ubiquitination at 2 uM pretreated with MG132 at 1 uM followed by compound treatment and further incubated for 24 hrs by immunoblotting analysis (reference value: 100%); format: cell-based
[9] = target: T1, Protein cereblon/Histone acetyltransferase p300; test: PROTAC activity at CRBN/p300 in human SK-HEP1 cells assessed as induction of p300 protein degradation at 0.01 uM incubated for 24 hrs relative to control; format: cell-based
[10] = target: T1, Protein cereblon/Histone acetyltransferase p300; test: PROTAC activity at CRBN/p300 in human SK-HEP1 cells assessed as induction of p300 protein degradation at 0.1 uM incubated for 24 hrs relative to control; format: cell-based
[11] = target: T1, Protein cereblon/Histone acetyltransferase p300; test: PROTAC activity at CRBN/p300 in human SK-HEP1 cells assessed as induction of p300 protein degradation at 1 uM incubated for 24 hrs relative to control; format: cell-based

T1 sequence (Q09472 2-2414 limits assumed): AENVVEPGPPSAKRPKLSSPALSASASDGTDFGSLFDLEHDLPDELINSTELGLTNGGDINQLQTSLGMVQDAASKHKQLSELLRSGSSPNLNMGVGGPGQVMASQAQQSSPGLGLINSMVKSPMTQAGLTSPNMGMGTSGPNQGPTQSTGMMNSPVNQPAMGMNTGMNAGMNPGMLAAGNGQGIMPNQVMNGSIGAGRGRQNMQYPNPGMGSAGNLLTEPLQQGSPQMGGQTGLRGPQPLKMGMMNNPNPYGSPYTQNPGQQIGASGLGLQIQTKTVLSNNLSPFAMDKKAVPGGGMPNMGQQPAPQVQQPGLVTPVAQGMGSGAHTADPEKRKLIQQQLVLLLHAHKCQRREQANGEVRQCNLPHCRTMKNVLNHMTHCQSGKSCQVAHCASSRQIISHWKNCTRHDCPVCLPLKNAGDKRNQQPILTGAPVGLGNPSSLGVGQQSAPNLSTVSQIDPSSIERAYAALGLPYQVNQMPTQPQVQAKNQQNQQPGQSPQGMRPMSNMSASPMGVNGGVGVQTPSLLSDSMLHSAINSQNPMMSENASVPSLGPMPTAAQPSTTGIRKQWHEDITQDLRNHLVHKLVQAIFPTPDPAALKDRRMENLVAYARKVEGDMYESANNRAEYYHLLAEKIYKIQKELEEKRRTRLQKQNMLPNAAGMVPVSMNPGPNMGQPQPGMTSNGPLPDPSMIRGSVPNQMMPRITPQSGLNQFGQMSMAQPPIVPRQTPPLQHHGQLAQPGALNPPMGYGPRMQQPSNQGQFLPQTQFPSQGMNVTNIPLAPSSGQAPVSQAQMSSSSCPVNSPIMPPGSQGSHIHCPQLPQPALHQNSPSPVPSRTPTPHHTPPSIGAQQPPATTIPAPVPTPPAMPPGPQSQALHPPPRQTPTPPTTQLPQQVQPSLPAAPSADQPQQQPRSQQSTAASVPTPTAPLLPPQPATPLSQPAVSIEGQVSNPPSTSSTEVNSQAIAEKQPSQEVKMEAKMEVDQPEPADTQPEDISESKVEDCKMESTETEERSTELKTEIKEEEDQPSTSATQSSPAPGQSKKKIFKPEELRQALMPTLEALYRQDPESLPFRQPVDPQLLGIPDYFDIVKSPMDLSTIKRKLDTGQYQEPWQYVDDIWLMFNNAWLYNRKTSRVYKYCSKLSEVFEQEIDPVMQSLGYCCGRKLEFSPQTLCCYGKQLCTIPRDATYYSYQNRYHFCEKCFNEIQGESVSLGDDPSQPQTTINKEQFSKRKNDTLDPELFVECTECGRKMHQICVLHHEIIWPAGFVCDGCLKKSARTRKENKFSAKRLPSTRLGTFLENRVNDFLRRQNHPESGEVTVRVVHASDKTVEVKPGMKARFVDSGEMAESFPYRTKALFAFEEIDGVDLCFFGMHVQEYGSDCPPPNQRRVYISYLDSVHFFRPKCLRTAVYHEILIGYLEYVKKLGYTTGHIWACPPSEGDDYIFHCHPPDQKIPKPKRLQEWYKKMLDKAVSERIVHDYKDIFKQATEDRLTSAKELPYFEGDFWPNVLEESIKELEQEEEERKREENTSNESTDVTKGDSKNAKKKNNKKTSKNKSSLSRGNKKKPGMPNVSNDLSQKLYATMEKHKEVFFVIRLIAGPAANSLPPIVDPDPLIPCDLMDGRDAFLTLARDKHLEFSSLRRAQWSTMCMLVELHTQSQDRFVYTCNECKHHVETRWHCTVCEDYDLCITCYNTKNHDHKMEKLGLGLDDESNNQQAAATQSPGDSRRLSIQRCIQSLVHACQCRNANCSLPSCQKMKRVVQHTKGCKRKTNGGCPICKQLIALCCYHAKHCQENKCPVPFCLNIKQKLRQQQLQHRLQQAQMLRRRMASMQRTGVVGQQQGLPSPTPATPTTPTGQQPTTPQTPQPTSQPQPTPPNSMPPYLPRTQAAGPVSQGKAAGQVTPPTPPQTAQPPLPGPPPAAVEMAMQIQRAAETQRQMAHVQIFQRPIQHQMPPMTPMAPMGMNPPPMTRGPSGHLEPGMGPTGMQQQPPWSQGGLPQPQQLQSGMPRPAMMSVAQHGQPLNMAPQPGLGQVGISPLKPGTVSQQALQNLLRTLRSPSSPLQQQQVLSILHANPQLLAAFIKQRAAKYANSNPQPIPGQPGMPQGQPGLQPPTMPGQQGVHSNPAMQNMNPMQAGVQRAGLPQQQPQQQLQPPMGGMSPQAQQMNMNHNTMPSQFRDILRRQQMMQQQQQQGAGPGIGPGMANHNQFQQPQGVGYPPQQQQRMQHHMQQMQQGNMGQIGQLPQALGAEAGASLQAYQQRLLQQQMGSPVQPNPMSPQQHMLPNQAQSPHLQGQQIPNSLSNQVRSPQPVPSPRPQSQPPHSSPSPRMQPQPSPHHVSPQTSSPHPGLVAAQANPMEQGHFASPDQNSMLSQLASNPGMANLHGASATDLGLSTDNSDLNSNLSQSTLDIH
T1 sequence (Q96SW2 whole entry partner): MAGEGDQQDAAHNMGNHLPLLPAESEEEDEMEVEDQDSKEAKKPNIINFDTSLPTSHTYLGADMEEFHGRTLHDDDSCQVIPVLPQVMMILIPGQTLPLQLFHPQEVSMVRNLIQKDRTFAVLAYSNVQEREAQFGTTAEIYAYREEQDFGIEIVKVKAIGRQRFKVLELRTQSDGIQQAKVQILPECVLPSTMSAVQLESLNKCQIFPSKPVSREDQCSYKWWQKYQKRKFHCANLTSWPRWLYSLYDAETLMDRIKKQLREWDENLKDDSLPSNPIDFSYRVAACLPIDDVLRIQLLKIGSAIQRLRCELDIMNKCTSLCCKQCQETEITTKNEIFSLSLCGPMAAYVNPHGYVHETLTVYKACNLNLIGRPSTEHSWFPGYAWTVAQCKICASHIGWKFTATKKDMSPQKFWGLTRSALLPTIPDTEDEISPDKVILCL

In the case of CC(=O)N1CCC(n2c([C@@H]3CCCC(=O)N3c3ccc(F)c(F)c3)nc3cc(-c4c(C)noc4C)ccc32)CC1, the IC50 [1] is reported as 0.026 µM, the IC50 (SK-HEP1 [2]) is reported as 4.36 µM and the IC50 [3] is reported as > 20 µM. For the same molecule, the Activity (SK-HEP1 [4]) was 117%, the Activity (SK-HEP1 [5]) was 101% and the Activity (Mus musculus) was “inactive”. The Activity [6] was “inactive”, the Activity [7] was 105% and the Activity [8] was 97%.

For Cc1noc(C)c1-c1ccc2c(c1)nc([C@@H]1CCCC(=O)N1c1ccc(F)c(F)c1)n2C1CCN(C(=O)CCOCCOCCOCCOCCNc2ccc3c(c2)C(=O)N(C2CCC(=O)NC2=O)C3=O)CC1 (stereo partly specified), the Activity [9] was < 1%, the Activity [10] was < 1% and the Activity [11] was 28%.

With CC(=O)N1CC(n2c([C@@H]3CCCC(=O)N3c3ccc(F)c(F)c3)nc3cc(-c4c(C)noc4C)ccc32)C1 the IC50 [1] was 0.025 µM.

With Cc1noc(C)c1-c1ccc2c(c1)nc([C@@H]1CCCC(=O)N1c1ccc(F)c(F)c1)n2C1CCN(C(=O)CNc2cccc3c2C(=O)N(C2CCC(=O)NC2=O)C3=O)CC1 (stereo partly specified) the Activity [9] was < 1%, the Activity [10] was < 1% and the Activity [11] was 18%.

Molecule CO[C@H]1CC[C@H](n2c([C@@H]3CCCC(=O)N3c3ccc(F)c(F)c3)nc3cc(-c4c(C)noc4C)ccc32)CC1 [INOBRODIB] has an IC50 (SK-HEP1 [2]) of 4.68 µM, an IC50 [3] of 9.7 µM and an Activity (SK-HEP1 [4]) of 95%. The Activity (SK-HEP1 [5]) was 96%.

In the case of Cc1noc(C)c1-c1ccc2c(c1)nc([C@@H]1CCCC(=O)N1c1ccc(F)c(F)c1)n2C1CCN(c2cccc3c2C(=O)N(C2CCC(=O)NC2=O)C3=O)CC1 (stereo partly specified), the Activity [9] is reported as < 1%, the Activity [10] is reported as < 1% and the Activity [11] is reported as 39%.

In the case of Cc1noc(C)c1-c1ccc2c(c1)nc([C@@H]1CCCC(=O)N1c1ccc(F)c(F)c1)n2C1CN(C2CN(c3ccc4c(c3)C(=O)N(C3CCC(=O)NC3=O)C4=O)C2)C1 (stereo partly specified), the Activity [9] is reported as < 1%, the Activity [10] is reported as < 1% and the Activity [11] is reported as 27%.

In the case of Cc1noc(C)c1-c1ccc2c(c1)nc([C@@H]1CCCC(=O)N1c1ccc(F)c(F)c1)n2C1CCN(C(=O)CCOCCOCCNc2cccc3c2C(=O)N(C2CCC(=O)NC2=O)C3=O)CC1 (stereo partly specified), the Activity [9] is reported as < 1%, the Activity [10] is reported as 2% and the Activity [11] is reported as 25%.

CNC(=O)N1CCc2c(c(N3CCCc4cc(-c5cnn(C)c5)c(C(F)F)cc43)nn2C2CCN(C(=O)CCOCCOCCOCCOCCNc3ccc4c(c3)C(=O)N(C3CCC(=O)NC3=O)C4=O)CC2)C1 (stereo unspecified) showed an Activity [9] of 3%, an Activity [10] of 7% and an Activity [11] of 18%. The IC50 (SK-HEP1 [2]) was > 20 µM and the IC50 [3] was > 20 µM.

In the case of Cc1noc(C)c1-c1ccc2c(c1)nc([C@@H]1CCCC(=O)N1c1ccc(F)c(F)c1)n2C1CN(C2CCN(c3ccc4c(c3)C(=O)N(C3CCC(=O)NC3=O)C4=O)CC2)C1 (stereo partly specified), the Activity [9] is reported as 4%, the Activity [10] is reported as < 1% and the Activity [11] is reported as 26%.

With Cc1noc(C)c1-c1ccc2c(c1)nc([C@@H]1CCCC(=O)N1c1ccc(F)c(F)c1)n2C1CCN(C(=O)CCOCCOCCOCCNc2cccc3c2C(=O)N(C2CCC(=O)NC2=O)C3=O)CC1 (stereo partly specified) the Activity [9] was < 1%, the Activity [10] was < 1% and the Activity [11] was 8%.

With Cc1noc(C)c1-c1ccc2c(c1)nc([C@@H]1CCCC(=O)N1c1ccc(F)c(F)c1)n2C1CCN(C2CCN(c3ccc4c(c3)C(=O)N(C3CCC(=O)NC3=O)C4=O)CC2)CC1 (stereo partly specified) the Activity [9] was 9%, the Activity [10] was 5% and the Activity [11] was 38%.

For Cc1noc(C)c1-c1ccc2c(c1)nc([C@@H]1CCCC(=O)N1c1ccc(F)c(F)c1)n2C1CN(C2CN(c3cccc4c3C(=O)N(C3CCC(=O)NC3=O)C4=O)C2)C1 (stereo partly specified), the Activity [9] was 3%, the Activity [10] was < 1% and the Activity [11] was 23%.

With Cc1noc(C)c1-c1ccc2c(c1)nc([C@@H]1CCCC(=O)N1c1ccc(F)c(F)c1)n2C1CCN(c2ccc3c(c2)C(=O)N(C2CCC(=O)NC2=O)C3=O)CC1 (stereo partly specified) the Activity [9] was 6%, the Activity [10] was 9% and the Activity [11] was 32%.

With Cc1noc(C)c1-c1ccc2c(c1)nc([C@@H]1CCCC(=O)N1c1ccc(F)c(F)c1)n2C1CCN(C(=O)CCOCCOCCOCCNc2ccc3c(c2)C(=O)N(C2CCC(=O)NC2=O)C3=O)CC1 (stereo partly specified) the Activity [9] was < 1%, the Activity [10] was < 1% and the Activity [11] was 19%.

For Cc1noc(C)c1-c1ccc2c(c1)nc([C@@H]1CCCC(=O)N1c1ccc(F)c(F)c1)n2C1CCN(C(=O)CCOCCNc2cccc3c2C(=O)N(C2CCC(=O)NC2=O)C3=O)CC1 (stereo partly specified), the Activity [9] was < 1%, the Activity [10] was < 1% and the Activity [11] was 15%.

For Cc1noc(C)c1-c1ccc2c(c1)nc([C@@H]1CCCC(=O)N1c1ccc(F)c(F)c1)n2C1CN(C2CCN(c3cccc4c3C(=O)N(C3CCC(=O)NC3=O)C4=O)CC2)C1 (stereo partly specified), the Activity [9] was < 1%, the Activity [10] was 8% and the Activity [11] was 28%.

With Cc1noc(C)c1-c1ccc2c(c1)nc([C@@H]1CCCC(=O)N1c1ccc(F)c(F)c1)n2C1CCN(C2CCN(c3cccc4c3C(=O)N(C3CCC(=O)NC3=O)C4=O)CC2)CC1 (stereo partly specified) the Activity [9] was 4%, the Activity [10] was 6% and the Activity [11] was 9%.

In the case of Cc1noc(C)c1-c1ccc2c(c1)nc([C@@H]1CCCC(=O)N1c1ccc(F)c(F)c1)n2C1CCN(C2CN(c3cccc4c3C(=O)N(C3CCC(=O)NC3=O)C4=O)C2)CC1 (stereo partly specified), the Activity [9] is reported as < 1%, the Activity [10] is reported as < 1% and the Activity [11] is reported as 4%.

With Cc1noc(C)c1-c1ccc2c(c1)nc([C@@H]1CCCC(=O)N1c1ccc(F)c(F)c1)n2C1CCN(C(=O)CCOCCNc2ccc3c(c2)C(=O)N(C2CCC(=O)NC2=O)C3=O)CC1 (stereo partly specified) the Activity [9] was < 1%, the Activity [10] was < 1% and the Activity [11] was 18%.

For Cc1noc(C)c1-c1ccc2c(c1)nc([C@@H]1CCCC(=O)N1c1ccc(F)c(F)c1)n2C1CCN(C(=O)CCOCCOCCNc2ccc3c(c2)C(=O)N(C2CCC(=O)NC2=O)C3=O)CC1 (stereo partly specified), the Activity [9] was < 1%, the Activity [10] was < 1% and the Activity [11] was 29%.

For Cc1noc(C)c1-c1ccc2c(c1)nc([C@@H]1CCCC(=O)N1c1ccc(F)c(F)c1)n2C1CCN(C(=O)CNc2ccc3c(c2)C(=O)N(C2CCC(=O)NC2=O)C3=O)CC1 (stereo partly specified), the Activity [9] was < 1%, the Activity [10] was 2% and the Activity [11] was 3%.

With Cc1noc(C)c1-c1ccc2c(c1)nc([C@@H]1CCCC(=O)N1c1ccc(F)c(F)c1)n2C1CCN(C(=O)CCOCCOCCOCCOCCNc2cccc3c2C(=O)N(C2CCC(=O)NC2=O)C3=O)CC1 (stereo partly specified) the Activity [9] was < 1%, the Activity [10] was < 1% and the Activity [11] was 49%.
